This series in a line: Storage stability / shelf life of F-18 labeling precursors. It counts as physicochemical. To be noted: for stability to storage compared to the tosylate and 4-bromo-tosylate derivatives: comparison in the FIG. 1C legend; for stability on storage: stored below 0 C.

Take `CC(=O)OCC1OC(OC2C(COC(C)=O)OC(OC3C(COC(C)=O)OC(OCCCn4cc(CCCBr)nn4)C(OC(C)=O)C3OC(C)=O)C(OC(C)=O)C2OC(C)=O)C(OC(C)=O)C(OC(C)=O)C1OC(C)=O` (stereo not shown) [3-bromopropyl-precursor, 2-(acetoxymethyl)-6-((4,5-diacetoxy-2-(acetoxymethyl)-6-((4,5-diacetoxy-2-(acetoxymethyl)-6-(3-(4-(3-bromopropyl)-1H-1,2,3-triazol-1-yl)propoxy)tetrahydro-2H-pyran-3-yl)oxy)tetrahydro-2H-pyran-3-yl)oxy)tetrahydro-2H-pyran-3,4,5-triyl triacetate]: the “stability to storage compared to the tosylate and 4-bromo-tosylate derivatives” value is “more statable to storage”; the stability on storage result is given as “stable”.

On to `CC(=O)OCC1OC(OC2C(COC(C)=O)OC(OC3C(COC(C)=O)OC(OCCCn4cc(CCCI)nn4)C(OC(C)=O)C3OC(C)=O)C(OC(C)=O)C2OC(C)=O)C(OC(C)=O)C(OC(C)=O)C1OC(C)=O` (stereo not shown) [3-iodopropyl-precursor, 2-(acetoxymethyl)-6-((4,5-diacetoxy-2-(acetoxymethyl)-6-((4,5-diacetoxy-2-(acetoxymethyl)-6-(3-(4-(3-iodopropyl)-1H-1,2,3-triazol-1-yl)propoxy)tetrahydro-2H-pyran-3-yl)oxy)tetrahydro-2H-pyran-3-yl)oxy)tetrahydro-2H-pyran-3,4,5-triyl triacetate], for which the “stability to storage compared to the tosylate and 4-bromo-tosylate derivatives” value is “more statable to storage”; the stability on storage result is listed as “stable”.
